Assay results: PMC5218480 (PLoS ONE, 2017)

Tested on: MV-4-11 cells
Assay: Gene expression microarray analysis (Affymetrix PrimeView) and GSEA
Format: cell-based, human
Design: RFU PODN (11730768_x_at) / Fold change /veh PODN (11730768_x_at) / RFU LINC00158 (11744669_a_at) / Fold change /veh LINC00158 (11744669_a_at) / RFU DUSP10 (11751237_a_at) / Fold change /veh DUSP10 (11751237_a_at) / RFU ID3 (11757404_x_at) / Fold change /veh ID3 (11757404_x_at) / RFU PLEKHG5 (11737974_s_at) / Fold change /veh PLEKHG5 (11737974_s_at) / RFU LRRC4B (11730491_at) / Fold change /veh LRRC4B (11730491_at) / RFU GIMAP4 (11747438_a_at) / Fold change /veh GIMAP4 (11747438_a_at) / RFU KRT8 (11758183_x_at) / Fold change /veh KRT8 (11758183_x_at) / RFU CNN1 (11734310_a_at) / Fold change /veh CNN1 (11734310_a_at) / RFU VPS37D (11726825_at) / Fold change /veh VPS37D (11726825_at) / RFU C10orf10 (11716522_x_at) / Fold change /veh C10orf10 (11716522_x_at) / RFU KIR2DL2 /// KIR2DL4 /// KIR2DL5A /// KIR2DL5B /// KIR2DS1 /// KIR2DS2 /// KIR2DS3 /// KIR2DS4 /// KIR3DL3 /// KIR3DL3 /// KIR3DS1 (11738374_at) / Fold change /veh KIR2DL2 /// KIR2DL4 /// KIR2DL5A /// KIR2DL5B /// KIR2DS1 /// KIR2DS2 /// KIR2DS3 /// KIR2DS4 /// KIR3DL3 /// KIR3DL3 /// KIR3DS1 (11738374_at) / RFU C1QL1 (11718748_at) / Fold change /veh C1QL1 (11718748_at) / RFU TMPRSS4 (11747572_a_at) / Fold change /veh TMPRSS4 (11747572_a_at) / RFU HAMP (11756126_x_at) / Fold change /veh HAMP (11756126_x_at) / RFU RNFT2 (11725882_a_at) / Fold change /veh RNFT2 (11725882_a_at) / RFU NR4A2 (11747474_a_at) / Fold change /veh NR4A2 (11747474_a_at) / RFU ABCC12 (11746883_a_at) / Fold change /veh ABCC12 (11746883_a_at) / RFU TMEM136 (11760407_x_at) / Fold change /veh TMEM136 (11760407_x_at) / RFU CLDN22 /// WWC2 (11732394_at) / Fold change /veh CLDN22 /// WWC2 (11732394_at) / RFU HLA-DPB1 (11760878_x_at) / Fold change /veh HLA-DPB1 (11760878_x_at) / RFU SPINT1 (11716480_a_at) / Fold change /veh SPINT1 (11716480_a_at) / RFU GAP43 (11754022_s_at) / Fold change /veh GAP43 (11754022_s_at) / RFU A4GNT (11735810_at) / Fold change /veh A4GNT (11735810_at) / RFU PRB3 (11715151_x_at) / Fold change /veh PRB3 (11715151_x_at) / RFU TUBB4B (11761932_at) / Fold change /veh TUBB4B (11761932_at) / RFU CAPN14 (11732068_a_at) / Fold change /veh CAPN14 (11732068_a_at) / RFU TMCC2 (11721928_a_at) / Fold change /veh TMCC2 (11721928_a_at) / RFU IRGQ (11745062_a_at) / Fold change /veh IRGQ (11745062_a_at) / RFU FAM174B (11720279_a_at) / Fold change /veh FAM174B (11720279_a_at) / RFU TMPRSS4 (11748680_a_at) / Fold change /veh TMPRSS4 (11748680_a_at) / RFU FAM212B (11763350_a_at) / Fold change /veh FAM212B (11763350_a_at) / RFU PLEKHG5 (11743358_a_at) / Fold change /veh PLEKHG5 (11743358_a_at) / RFU ZSCAN30 (11745921_a_at) / Fold change /veh ZSCAN30 (11745921_a_at) / RFU CMKLR1 (11741424_a_at) / Fold change /veh CMKLR1 (11741424_a_at) / RFU LOC101060620 /// MAPK8IP1 (11723275_at) / Fold change /veh LOC101060620 /// MAPK8IP1 (11723275_at) / RFU SPTSSB (11747773_x_at) / Fold change /veh SPTSSB (11747773_x_at) / RFU PRSS12 (11739890_at) / Fold change /veh PRSS12 (11739890_at) / RFU BIN1 (11741810_x_at) / Fold change /veh BIN1 (11741810_x_at) / RFU WNT11 (11732464_a_at) / Fold change /veh WNT11 (11732464_a_at) / RFU C10orf10 (11716521_a_at) / Fold change /veh C10orf10 (11716521_a_at) / RFU C5orf56 (11738089_at) / Fold change /veh C5orf56 (11738089_at) / RFU CYB561 (11721691_x_at) / Fold change /veh CYB561 (11721691_x_at) / RFU ANKRD19P (11752326_a_at) / Fold change /veh ANKRD19P (11752326_a_at) / RFU OR2T12 /// OR2T33 /// OR2T8 (11738714_s_at) / Fold change /veh OR2T12 /// OR2T33 /// OR2T8 (11738714_s_at) / RFU VCAN (11748164_a_at) / Fold change /veh VCAN (11748164_a_at) / RFU JSRP1 (11732532_at) / Fold change /veh JSRP1 (11732532_at) / RFU KRTAP10-11 (11738290_x_at) / Fold change /veh KRTAP10-11 (11738290_x_at) / RFU MYO3A (11730013_a_at) / Fold change /veh MYO3A (11730013_a_at) / RFU EBF3 (11725865_a_at) / Fold change /veh EBF3 (11725865_a_at) / RFU CAMK2N1 (11719241_x_at) / Fold change /veh CAMK2N1 (11719241_x_at) / RFU C5orf56 (11738088_a_at) / Fold change /veh C5orf56 (11738088_a_at) / RFU OLFML3 (11715873_a_at) / Fold change /veh OLFML3 (11715873_a_at) / RFU LOC100653217 /// NTM (11731650_a_at) / Fold change /veh LOC100653217 /// NTM (11731650_a_at) / RFU MAPK11 (11762145_a_at) / Fold change /veh MAPK11 (11762145_a_at) / RFU FIZ1 (11724087_x_at) / Fold change /veh FIZ1 (11724087_x_at) / RFU OASL (11726364_x_at) / Fold change /veh OASL (11726364_x_at) / RFU SOX15 (11748057_x_at) / Fold change /veh SOX15 (11748057_x_at) / RFU CD79A (11719716_a_at) / Fold change /veh CD79A (11719716_a_at) / RFU HIST1H1D (11736915_at) / Fold change /veh HIST1H1D (11736915_at) / RFU CASKIN2 (11723855_a_at) / Fold change /veh CASKIN2 (11723855_a_at) / RFU LOC730098 (11760151_x_at) / Fold change /veh LOC730098 (11760151_x_at) / RFU OR4N2 (11742367_at) / Fold change /veh OR4N2 (11742367_at) / RFU PRRT2 (11749266_a_at) / Fold change /veh PRRT2 (11749266_a_at) / RFU SNX32 (11753110_a_at) / Fold change /veh SNX32 (11753110_a_at) / RFU CDHR5 (11726645_a_at) / Fold change /veh CDHR5 (11726645_a_at) / RFU RCAN1 (11760418_a_at) / Fold change /veh RCAN1 (11760418_a_at) / RFU FAM167A (11723789_a_at) / Fold change /veh FAM167A (11723789_a_at) / RFU FAM26E (11764081_at) / Fold change /veh FAM26E (11764081_at) / RFU ISYNA1 (11749810_s_at) / Fold change /veh ISYNA1 (11749810_s_at) / RFU ACY1 (11761880_at) / Fold change /veh ACY1 (11761880_at) / RFU 11764098_at / Fold change /veh 11764098_at / RFU SAMD14 (11745864_x_at) / Fold change /veh SAMD14 (11745864_x_at) / RFU NPB (11741838_a_at) / Fold change /veh NPB (11741838_a_at) / RFU TMPRSS6 (11731388_a_at) / Fold change /veh TMPRSS6 (11731388_a_at) / RFU KRTAP10-2 (11738614_at) / Fold change /veh KRTAP10-2 (11738614_at) / RFU ARHGAP8 /// PRR5-ARHGAP8 (11727945_x_at) / Fold change /veh ARHGAP8 /// PRR5-ARHGAP8 (11727945_x_at) / RFU KRTAP5-7 /// NADSYN1 (11734609_at) / Fold change /veh KRTAP5-7 /// NADSYN1 (11734609_at) / RFU RASL12 (11751679_a_at) / Fold change /veh RASL12 (11751679_a_at) / RFU CDKN2B (11736163_a_at) / Fold change /veh CDKN2B (11736163_a_at) / RFU PRF1 (11729649_at) / Fold change /veh PRF1 (11729649_at) / RFU, ZNF638 /// ZNF638-IT1 / Fold change vs veh, ZNF638 /// ZNF638-IT1 / RFU, PANK3 / Fold change vs veh, PANK3 / RFU, SH3YL1 / Fold change vs veh, SH3YL1 / RFU, ZEB2 / Fold change vs veh, ZEB2 / RFU, NRIP1 / Fold change vs veh, NRIP1 / RFU, PTTG1IP / Fold change vs veh, PTTG1IP / RFU, CAPN2 / Fold change vs veh, CAPN2 / RFU, MED14 / Fold change vs veh, MED14 / RFU, SNORA58 / Fold change vs veh, SNORA58 / RFU, C1orf63 / Fold change vs veh, C1orf63 / RFU, LRRFIP1 / Fold change vs veh, LRRFIP1 / RFU, NDUFAF7 / Fold change vs veh, NDUFAF7 / RFU, SLC12A2 / Fold change vs veh, SLC12A2 / RFU, IBTK / Fold change vs veh, IBTK / RFU, ESF1 / Fold change vs veh, ESF1 / Fold change vs veh, TMEM50B / RFU, TAOK1 / Fold change vs veh, TAOK1 / RFU, ACBD3 / Fold change vs veh, ACBD3 / RFU, TMA16 / Fold change vs veh, TMA16 / RFU, RWDD3 / Fold change vs veh, RWDD3 / RFU, BCAT1 / Fold change vs veh, BCAT1 / RFU, EDEM3 / Fold change vs veh, EDEM3 / RFU, TMEM33 / Fold change vs veh, TMEM33 / RFU, WDR75 / Fold change vs veh, WDR75 / RFU, AHCTF1 / Fold change vs veh, AHCTF1 / RFU, TFRC / Fold change vs veh, TFRC / RFU, ZDHHC17 / Fold change vs veh, ZDHHC17 / RFU, NOM1 / Fold change vs veh, NOM1 / RFU, ARL8B / Fold change vs veh, ARL8B / RFU, ZBTB11 / Fold change vs veh, ZBTB11 / RFU, TAMM41 / Fold change vs veh, TAMM41 / RFU, KIAA1704 /// LOC100996395 / Fold change vs veh, KIAA1704 /// LOC100996395 / RFU, ING1 / Fold change vs veh, ING1 / RFU, TRMT61B / Fold change vs veh, TRMT61B / RFU, FUBP3 / Fold change vs veh, FUBP3 / RFU, TP53 / Fold change vs veh, TP53 / RFU, TNKS2 / Fold change vs veh, TNKS2 / RFU, ZFP14 / Fold change vs veh, ZFP14 / RFU, ACTR2 / Fold change vs veh, ACTR2 / RFU, PPP3R1 / Fold change vs veh, PPP3R1 / RFU, PIK3R1 / Fold change vs veh, PIK3R1 / RFU, HNRNPA1 / Fold change vs veh, HNRNPA1 / RFU, RNF170 / Fold change vs veh, RNF170 / RFU, ZNF28 / Fold change vs veh, ZNF28 / RFU, RNGTT / Fold change vs veh, RNGTT / RFU, OGT / Fold change vs veh, OGT / RFU, BRD1 / Fold change vs veh, BRD1 / RFU, MARS / Fold change vs veh, MARS / RFU, ZNF655 / Fold change vs veh, ZNF655 / RFU, FAHD1 / Fold change vs veh, FAHD1 / RFU, BDP1 / Fold change vs veh, BDP1 / RFU, LRRCC1 / Fold change vs veh, LRRCC1 / RFU, ARID1A / Fold change vs veh, ARID1A / RFU, ZNF146 / Fold change vs veh, ZNF146 / RFU, ZNF330 / Fold change vs veh, ZNF330 / RFU, GPN3 / Fold change vs veh, GPN3 / RFU, C9orf123 / Fold change vs veh, C9orf123 / RFU, N4BP2L2 / Fold change vs veh, N4BP2L2 / RFU, ARFIP1 / Fold change vs veh, ARFIP1 / RFU, FAM179B / Fold change vs veh, FAM179B / RFU, BCL10 / Fold change vs veh, BCL10 / RFU, UHRF1BP1L / Fold change vs veh, UHRF1BP1L / RFU, BET1 / Fold change vs veh, BET1 / RFU, CNOT2 / Fold change vs veh, CNOT2 / RFU, ZNF268 / Fold change vs veh, ZNF268 / Fold change vs veh, ZNF507 / RFU, DGCR2 / Fold change vs veh, DGCR2 / RFU, WDSUB1 / Fold change vs veh, WDSUB1 / Fold change vs veh, HSP90B1 /// MIR3652 / RFU, ADSS / Fold change vs veh, ADSS / RFU, GK / Fold change vs veh, GK / RFU, ZNF148 / Fold change vs veh, ZNF148 / RFU, TAF9 / Fold change vs veh, TAF9 / RFU, SLC1A5 / Fold change vs veh, SLC1A5 / RFU, SLMO2 / Fold change vs veh, SLMO2 / RFU, ABCC4 / Fold change vs veh, ABCC4 / RFU, LOC101060439 /// RAP1B / Fold change vs veh, LOC101060439 /// RAP1B / RFU, RFX7 / Fold change vs veh, RFX7 / RFU, GTPBP10 / Fold change vs veh, GTPBP10 / RFU, CNEP1R1 / Fold change vs veh, CNEP1R1 / RFU, BIVM-ERCC5 /// ERCC5 / Fold change vs veh, BIVM-ERCC5 /// ERCC5 / RFU, ILF3 / Fold change vs veh, ILF3 / RFU 11762660_at / Fold change /veh 11762660_at / RFU VCAN (11757783_s_at) / Fold change /veh VCAN (11757783_s_at) / RFU DDX43 (11728927_at) / Fold change /veh DDX43 (11728927_at) / RFU KRT8 (11758188_x_at) / Fold change /veh KRT8 (11758188_x_at) / RFU NKD1 (11759106_at) / Fold change /veh NKD1 (11759106_at) / RFU SRD5A1 (11742802_a_at) / Fold change /veh SRD5A1 (11742802_a_at) / RFU TPSAB1 /// TPSB2 (11721975_s_at) / Fold change /veh TPSAB1 /// TPSB2 (11721975_s_at) / RFU GSTM3 (11746129_a_at) / Fold change /veh GSTM3 (11746129_a_at) / RFU IL23R (11737362_x_at) / Fold change /veh IL23R (11737362_x_at) / RFU TMEM51 (11727254_a_at) / Fold change /veh TMEM51 (11727254_a_at) / RFU PIWIL2 (11732686_x_at) / Fold change /veh PIWIL2 (11732686_x_at) / RFU ORM1 (11744905_x_at) / Fold change /veh ORM1 (11744905_x_at) / RFU CCDC152 (11743942_at) / Fold change /veh CCDC152 (11743942_at) / RFU ECM1 (11717891_a_at) / Fold change /veh ECM1 (11717891_a_at) / RFU IL23R (11748794_a_at) / Fold change /veh IL23R (11748794_a_at) / RFU TNFAIP8L3 (11732012_x_at) / Fold change /veh TNFAIP8L3 (11732012_x_at) / RFU MBOAT4 (11741988_at) / Fold change /veh MBOAT4 (11741988_at) / RFU 11764193_at / Fold change /veh 11764193_at / RFU TMEM53 (11763286_at) / Fold change /veh TMEM53 (11763286_at) / RFU MAGEB2 (11727129_at) / Fold change /veh MAGEB2 (11727129_at) / RFU TMEM200A (11744735_a_at) / Fold change /veh TMEM200A (11744735_a_at) / RFU CCDC152 (11751479_a_at) / Fold change /veh CCDC152 (11751479_a_at) / RFU FAM211A (11726209_a_at) / Fold change /veh FAM211A (11726209_a_at) / RFU RGS16 (11746705_a_at) / Fold change /veh RGS16 (11746705_a_at) / RFU VCAN (11755009_s_at) / Fold change /veh VCAN (11755009_s_at) / RFU RHOB (11743442_s_at) / Fold change /veh RHOB (11743442_s_at) / RFU RGS16 (11720943_a_at) / Fold change /veh RGS16 (11720943_a_at) / RFU RGS16 (11720944_at) / Fold change /veh RGS16 (11720944_at) / RFU, VPS4B / Fold change vs veh, VPS4B / RFU, CREB1 / Fold change vs veh, CREB1 / RFU, DNAJC13 / Fold change vs veh, DNAJC13 / RFU, GNAQ / Fold change vs veh, GNAQ / RFU, CDK5R1 / Fold change vs veh, CDK5R1 / RFU, ZRANB3 / Fold change vs veh, ZRANB3 / RFU, CUL4A / Fold change vs veh, CUL4A / RFU, CCNY / Fold change vs veh, CCNY / RFU, UFL1 / Fold change vs veh, UFL1 / RFU, COG3 / Fold change vs veh, COG3 / RFU, DIAPH2 / Fold change vs veh, DIAPH2 / RFU, SKA2 / Fold change vs veh, SKA2 / RFU, AFF3 / Fold change vs veh, AFF3 / RFU, LMF1 / Fold change vs veh, LMF1 / RFU, IPO11 / Fold change vs veh, IPO11 / RFU, DFFB / Fold change vs veh, DFFB / RFU, FOXP1 / Fold change vs veh, FOXP1 / RFU, CARD8 / Fold change vs veh, CARD8 / RFU, STRN3 / Fold change vs veh, STRN3 / RFU, ADK / Fold change vs veh, ADK / RFU, RASSF2 / Fold change vs veh, RASSF2 / RFU, WIPF1 / Fold change vs veh, WIPF1 / RFU, LARP1B / Fold change vs veh, LARP1B / RFU, RASA1 / Fold change vs veh, RASA1 / RFU, RB1 / Fold change vs veh, RB1 / RFU, PPFIA1 / Fold change vs veh, PPFIA1 / RFU, MAT2A / Fold change vs veh, MAT2A / RFU, CCT5 / Fold change vs veh, CCT5 / RFU, WDR92 / Fold change vs veh, WDR92 / RFU, CUX1 / Fold change vs veh, CUX1 / RFU, TTC7A / Fold change vs veh, TTC7A / RFU, TMEM135 / Fold change vs veh, TMEM135 / RFU, DEPTOR / Fold change vs veh, DEPTOR / RFU, CPM / Fold change vs veh, CPM / RFU, DNAJB6 / Fold change vs veh, DNAJB6 / RFU, CACNA2D3 / Fold change vs veh, CACNA2D3 / RFU, DTX4 / Fold change vs veh, DTX4 / RFU, TFCP2 / Fold change vs veh, TFCP2 / RFU, GMCL1 /// GMCL1P1 / Fold change vs veh, GMCL1 /// GMCL1P1 / RFU, AEBP2 / Fold change vs veh, AEBP2 / RFU, SNHG1 /// SNORD22 /// SNORD25 /// SNORD26 /// SNORD27 /// SNORD28 /// SNORD29 /// SNORD31 / Fold change vs veh, SNHG1 /// SNORD22 /// SNORD25 /// SNORD26 /// SNORD27 /// SNORD28 /// SNORD29 /// SNORD31 / Fold change (Aza/veh), C12orf56 (ProbeSet 11735607_a_at) / Fold change (ACY-1035/veh), C12orf56 (ProbeSet 11735607_a_at) / Fold change (Aza/veh), FGFR1OP (ProbeSet 11751329_s_at) / Fold change (ACY-1035/veh), FGFR1OP (ProbeSet 11751329_s_at) / Fold change (Aza/veh), VPS36 (ProbeSet 11739960_a_at) / Fold change (ACY-1035/veh), VPS36 (ProbeSet 11739960_a_at) / RFU SYPL1 (11715823_x_at) / Fold change /veh SYPL1 (11715823_x_at) / RFU IGFBP7 (11715501_s_at) / Fold change /veh IGFBP7 (11715501_s_at) / RFU REEP3 (11722064_at) / Fold change /veh REEP3 (11722064_at) / RFU IGLL1 (11728026_x_at) / Fold change /veh IGLL1 (11728026_x_at): dose or concentration left out as unconfirmed
Conditions: ProbeSet 11729384_s_at; LIST D

Question: `Nc1ccc(-c2cccs2)cc1NC(=O)c1ccc2c(c1)cc(C1CC1)n2CCN1CCOCC1` [ACY-1035] was tested. Which “Fold change vs veh, CCNY” value did it give?
Answer: Its value is 0.87.
